Values after ≈ are worked out from the molar mass of the structure shown. Marks after values point to notes of the source that are not given here.
Columns and labels:
[1] = tested on: CCRF-CEM (lymphoblastic leukemia); assay: MTT cell viability assay, CCRF-CEM; type: cell-based; conditions: Homo sapiens, MTT after 72 hours
Description: (§1) The following cell lines were used in this assay: HL-60 (promyelocytic leukemia); Jurkat (T cell leukemia); CCRF-CEM (lymphoblastic leukemia); CEM/C2 (camptothecan resistant derivative of CCRF-CEM).
(§2) Cells were seeded in 96 wells plates at 3000 cells per well and incubated for 16 hours. Compound dilutions were performed in DMSO from 10 mM with 3 fold dilutions. Titrations were diluted 1:100 in media to achieve final compound concentrations. The 96 well plates were aspirated and compound dilutions in media were added ([…]). MTT analysis was carried out after 72 hours of incubation at 37° C. Briefly, […] of MTT solution was added to each well. Cells were incubated at 37° C. for 1-2 hours. Cells were lysed with the addition of […] cell lysis buffer and MTT was solubilized overnight at 37° C. Plates were read on a spectromax machine with an absorbance measurement at […]. IC50's were calculated (data provided in Table 1) using regression analysis within GraphPad Prism.

[2] = tested on: HL-60 (promyelocytic leukemia); assay: MTT cell viability assay, HL-60; type: cell-based; conditions: Homo sapiens, MTT after 72 hours
Description: as §1, §2

[3] = tested on: LM3-Jck human malignant lymphoma tumor; assay: LM3-Jck xenograft model; type: in vivo; conditions: LM3-JcK
Description: LM3-Jck human malignant lymphoma tumor lobes (2-3 mm square) were transplanted subcutaneously into nude mice. Tumors were allowed to grow to approximately 7-14 mm in diameter. […] Acceptable toxicity was defined as a mean group weight loss of 30% or less and not more than one toxic death among 6 treated animals. Anti-tumor activities of the drugs were assessed 21 days after the start of administration.

[4] = tested on: CCRF-CEM acute lymphoblastic leukemia tumor; assay: CCRF-CEM xenograft model; type: in vivo
Description: CCRF-CEM acute lymphoblastic leukemia tumor lobes of 2-3 mm square were transplanted subcutaneously into nude mice. Tumors were allowed to grow to approximately 8-20 mm in diameter. […] Acceptable toxicity was defined as a mean group weight loss of 30% or less and not more than one toxic death among 6 treated animals. Anti-tumor activities of the drugs were assessed 20 or 21 days after the start of administration. FIGS. 1-2 and Table 2 provides data for tumor inhibition rate (IR) and survival ratio in the CCRF-CEM and LM3-Jck xenograft models.

[5] = tested on: CEM/C2 (camptothecan resistant derivative of CCRF-CEM); assay: MTT cell viability assay, CEM/C2; type: cell-based; conditions: Homo sapiens, MTT after 72 hours
Description: as §1, §2

[6] = tested on: femoral bone marrow; assay: Combination dosing SNS-595 and Ara-C (Example 5): femoral bone marrow cellularity; type: in vivo, nu/nu mice
Excerpt: Femurs were harvested for histological evaluation. The femur was placed in Streck fixative, paraffin embedded, sectioned, transferred to slides, and H&E stained (at BioPathology Sciences). Immunohistochemical slides were processed and analyzed for percent cellularity of intact bone marrow.

[7] = tested on: bone marrow; assay: Monotherapy and combination with Ara-C (Example 6): bone marrow total cellularity; type: in vivo, Female CD-1 mice; conditions: for Total Cellularity (Avg) Exp #1: two days after completion of treatment
Description: Blood was analyzed at Quality Control Labs (Mountain View, Calif.) for complete blood count and differential count. Bone marrow smears from femurs on Day 6 and Day 12 were prepared and geimsa stained for differential counts. Femurs were also placed in Streck fixative, processed, sectioned and H&E stained. Femur and bone marrow smears were analyzed at BioPathology Sciences (South San Francisco, Calif.) for total cellularity and differential count. […] The compounds were administered on Day 0 and Day 4.

[8] = tested on: peripheral neutrophils, white blood cells, platelets; assay: Combination dosing SNS-595 and Ara-C (Example 5): peripheral cytology; type: in vivo, nu/nu mice
Description: At various time points described in Table 5, mice were euthanized by CO2 asphyxiation in accordance to Institutional Animal Care and Use Committee (IACUC) guidelines. Blood was collected through cardiac tap and transferred to EDTA tubes. The analysis of murine blood CBC and differential counts for samples in these tubes was conducted (at Quality Clinical Labs, Moutainview). Statistical significance was determined by one-tailed student t-test, using Welch's correction for unequal variances.

[9] = Combination dosing SNS-595 and Ara-C (Example 5): body weight changes
Description: The effects of dosing were studied on changes in body weight, peripheral cytology, and femoral bone marrow cellularity over time as described below.
Before beginning the study, all animals were allowed to acclimatize for 3 days from shipping related stress and the health of the mice was assessed daily by observation. Purified water (reverse osmosis) and irradiated food (PicoLab Rodent Diet 20, #5053; Dean's Animal Feeds, San Carlos, Calif.) were provided ad libitum, and the animals were kept on a 12 hour light and dark cycle.

[10] = in vivo; conditions: CD-1, mouse
[11] = Group 5: Ara-C 20 mg/kg SC tid q4d × 2
[12] = Group 6: Ara-C 40 mg/kg SC tid q4d × 2
[13] = Group 7: Ara-C 60 mg/kg SC tid q4d × 2
[14] = Ara-C 20, 40 and 60 mg/kg tid q4d ×2
[15] = CCRF-CEM, 100 mg/kg q4d × 3, IV

## COc1cccc2c1C(=O)c1c(O)c3c(c(O)c1C2=O)C[C@@](O)(C(=O)CO)C[C@@H]3O[C@H]1C[C@H](N)[C@H](O)[C@H](C)O1 [Doxorubicin]
[1]
  IC50: 0.003 µg/mL (≈ 0.00552 µM)
[2]
  IC50: 0.024 µg/mL (≈ 0.0442 µM)
[3]; 12 mg/kg q7d × 3, IV
  IR (%) tumor inhibition rate: 57.2* %
[4]; CCRF-CEM, 12 mg/kg q7d × 3, IV
  IR (%) tumor inhibition rate: 50.3* %
[5]
  IC50: 0.017 µg/mL (≈ 0.0313 µM)

## Nc1ccn([C@@H]2O[C@H](CO)[C@@H](O)[C@@H]2O)c(=O)n1 [Ara-C, cytarabine]
[6]; Ara-C 20 mg/kg SC three times a day, single agent
  reduction in cellularity: 12%
[6]; Ara-C single agent 20, 40, 60 mg/kg
  bone marrow cellularity, dose response: No dose dependent reduction
[6]; Day 6, Ara-C 20 mg/kg tid q4d ×2 SC, Animal #83
  total cellularity, femur cross section of representative animal: 90%
[6]; Day 6, Ara-C 40 mg/kg tid q4d ×2 SC, Animal #103
  total cellularity, femur cross section of representative animal: 90%
[6]; Day 6, Ara-C 60 mg/kg tid q4d ×2 SC, Animal #122
  total cellularity, femur cross section of representative animal: 50%
[6]; Day 12, Ara-C 60 mg/kg tid q4d ×2 SC, Animal #134
  total cellularity, femur cross section of representative animal: 50%
[6]; [11]
  Average Total Cellularity Day 6: 88%
[6]; [12]
  Average Total Cellularity Day 6: 90%
[6]; [13]
  Average Total Cellularity Day 6: 58%
  Average Total Cellularity Day 12: 99%
[7]; Ara-C 20 mg/kg tid q4d ×2
  Total Cellularity (Avg) Exp #2: 92%
[7]; Ara-C 20 mg/kg tid q4d × 2
  Total Cellularity (Avg) Exp #1: 88%
[7]; Ara-C 60 mg/kg tid q4d × 2
  Total Cellularity (Avg) Exp #2: 54%
  Total Cellularity (Avg) Exp #1: 58%
[8]; Ara-C 20 mg/kg tid q4d ×2
  day of nadir of number of neutrophils: 6 days
[8]; Ara-C 40 mg/kg tid q4d ×2
  day of nadir of platelets: 8 days
[8]; Ara-C 60 mg/kg, day 8
  number of white blood cells versus vehicle group: significantly lower than the vehicle group
[8]; [14]
  circulating white blood cells, dose response: dose-dependent reduction
[8]; Ara-C 20 and 60 mg/kg tid q4d ×2
  day of nadir of platelets: 6 days
[8]; Ara-C 40 and 60 mg/kg tid q4d ×2
  day of nadir of number of neutrophils: 8 days
[8]; Ara-C all dose levels
  day by which neutrophils returned to normal levels: ≤ 12 days
  day by which platelets returned to normal levels: ≤ 12 days
  recovery of white blood cells: failed to return to normal levels by day 18
[8]; Ara-C all dose levels, day 6 and day 8
  number of platelets versus vehicle group: significantly lower than the vehicle group
[8]; Ara-C all dose levels, day 8
  number of neutrophils versus vehicle group: significantly lower than the vehicle group
[9]; [14]
  day of maximum body weight loss: 7 days
  maximum body weight loss: ≤ 2%
[9]; [11]
  % of Body Wt Nadir: −0.3%
  Day of Body Wt Nadir: 7 days
[9]; [12]
  % of Body Wt Nadir: 0%
  Day of Body Wt Nadir: 0 days
[9]; [13]
  % of Body Wt Nadir: −1.7%
  Day of Body Wt Nadir: 7 days
[10]
  MTD: 60 mg/kg

## COc1cc([C@@H]2c3cc4c(cc3[C@@H](O[C@@H]3O[C@@H]5CO[C@@H](C)O[C@H]5[C@H](O)[C@H]3O)[C@H]3COC(=O)[C@H]23)OCO4)cc(OC)c1O [Etoposide]
[2]
  IC50: 0.136 µg/mL (≈ 0.231 µM)
[3]; 12 mg/kg qd × 5, IV
  IR (%) tumor inhibition rate: 3.0%
[4]; CCRF-CEM, 12 mg/kg qd × 5, IV
  IR (%) tumor inhibition rate: 28.3%
[4]; nude, mouse, in vivo, iv, 12 mg/kg
  Survival Ratio: 6/6

## CCc1c2c(nc3ccc(OC(=O)N4CCC(N5CCCCC5)CC4)cc13)-c1cc3c(c(=O)n1C2)COC(=O)[C@]3(O)CC [Irinotecan]
[1]
  IC50: 0.479 µg/mL (≈ 0.816 µM)
[2]
  IC50: 0.905 µg/mL (≈ 1.54 µM)
[3]; 100 mg/kg q4d × 3, IV
  IR (%) tumor inhibition rate: 97.7* %
  Survival Ratio: 6/6
[4]; [15]
  IR (%) tumor inhibition rate: 99.7* %
  Survival Ratio: 5/6
[5]
  IC50: 44.4 µg/mL (≈ 75.7 µM)

— patent US20080063642A1, “Methods of using (+)-1,4-dihydro-7-[(3S,4S)-3-methoxy-4-(methylamino)-1-pyrrolidinyl]-4-oxo-1-(2-thiazolyl)-1,8-naphthyridine-3-carboxylic acid for treatment of certain hematologic disorders” (priority 2006, published 2008)
